Measured values from patent US20190231847A1, “TREATMENT OF OCULAR DISEASE” (priority 2016, published 2019).
Read-outs that look alike come from different tables or passages of the source.

Experiments:
[1] = tested on: neovascularisation induced by sutures in the cornea; assay: Rat corneal suture model, Example 1 (blinded grading at day 6, images); format: in vivo
Description: To assess the action of ALM201 (SEQ ID NO:3) on the ocular surface, the ability to halt vessel growth was measured. Vessel growth was stimulated through a well-accepted model (Shi et al., 2011) whereby a suture was placed in the central cornea of rat eyes (FIG. 1). We have shown the rat eye is similar anatomically to the human eye (Moore J E, McMullen C B, Mahon G and Adamis A P. The corneal epithelial stem cell. DNA Cell Biol. 2002; 21(5-6):443-51; incorporated herein by reference).
The experimental groups were: • Subconjunctival injection of peptide (5 rats), control group (5 rats) and positive control group (5 rats) • Intrastromal injection of peptide (5 rats), control group (5 rats) and positive control group (5 rats) • Topical application of peptide (5 rats), control group (5 rats) and positive control group (5 rats)
A suture was placed in the central cornea of one eye of each animal while the control eye remained untouched. For the injection groups, peptide was added to the rat's eyes at day 0, day 3, and day 6. For the topical application group, peptide and the positive control was added daily. Each day after suture, rats were monitored for vessel growth and photographed using a Hawk Eye Portable Digital Slit Lamp (Dioptrix, France) and inverted microscope (Nikon's E600FN; Surrey, UK). At a time point when a difference is noted (e.g. day 6) between untreated and peptide treated animals, they received 8 μg/g tail vein injections of an endothelial-specific fluorescein-conjugated lectin (Lycopersicon esculentum; Vector Laboratories, Burlingame, Calif.). Thirty minutes later, the eyes were harvested and fixed with 10% neutral buffered formalin for 24 hours. The corneas were isolated and flat-mounted on glass slides. The fluorescence in the perfused vessels was captured using a Leica SP5 multiphoton microscope (Milton Keynes, UK). Vessel formation within tagged information file format (.tiff) files was measured by visualization with Image J (Rasband, 1997-2014).
At day 6 all rats were graded by an opthalmologist blinded to the treatment. Grading scales were as follows:
Vessel distance from suture: 0=no reach; 1=small distance; 2=moderate distance; 3=¾ of the way; 4=reached sutures;
Vessel density grading: 0=no density; 1=mild; 2=moderate; 3=high Inflammation grading: 0=none; 1=minimal; 2=moderate; 3=severe;

[2] = Bodyweight of EAU mice during the course of treatment; details: Dexamethasone 0.5 mg/kg p.o.; ALM201 0.3 mg/kg i.p.+Dexamethasone 0.5 mg/kg p.o.
Description: (§4) Bodyweight (BW) of each mouse was monitored daily during the course of treatment.

retinal inflammation [3] = assay: Mouse experimental autoimmune uveitis (EAU) model, clinical score from fundus images (TEFI); details: for Difference between day 14 p.i. and day 24 p.i. (clinical score): paired Student's t test
Description: The effect of ALM201 on autoimmune uveitis was tested in a mouse model of experimental autoimmune uveitis (EAU).
All mice were maintained in a normal experimental room and exposed to a 12-hour-dark-12-hour light cycle.
An additional 1 mg Bordetella pertussis toxin (Tocris Bioscience, Bristol, UK) was administered intraperitoneally immediately after peptide injection.
Mouse pupils were dilated with 1% atropine sulphate and 2.5% phenylephrine hydrochloride (Chauvin, Essex, UK). The animals were anaesthetised by isofluorane. […] Clinical score of retinal inflammation was accessed using the criteria described previously by us (Xu et al. 2008a).
Ten mice were assigned into each group.
All animals were treated for 10 days from day 14 to 24 p.i.
Group 2: ALM201 0.3 mg/kg in 100 ml, i.p. injection, once daily.
Group 3: ALM201 3 mg/kg in 100 ml, i.p. injection, once daily.
Group 4: Dexamethasone 0.5 mg/kg in 100 ml, p.o. (gavage), once daily.
Group 5: ALM201 0.3 mg/kg in 100 ml, i.p. injection+Dexamethasone 0.5 mg/kg in 100 ml, p.o. (gavage) once daily.
Data (Clinical score and histological score) was expressed as mean±SD. One way ANOVA followed by the Tukey's Multiple Comparison Test was used to detect difference between all treatment groups. In addition, Mann-Whitney U test (two tails) was used to detect the difference between ALM201 or dexamethasone treated group and PBS control group. Paired Student's t test was used to compare clinical score before and after treatment.

[4] = tested on: infiltrated cells and CD68+ cells in sutured cornea; assay: Histological analysis (H&E, CD68+) of sutured rat eyes, Example 3; format: in vivo; details: topical ALM201, day 6 after suture and treatment
Description: FIG. 11 Histological analysis by haematoxylin and eosin (H&E) staining showing increased infiltration of cells in control samples (PBS or dexamethasone) compared to treated samples (ALM201, 1 μM or 100 μM) at day 6 after suture and treatment. (A) Haematoxylin and eosin stained sections for each of the experimental groups. White arrows indicate sutures and black arrows show blood vessels (scale bar=500 μm). […] (B) The number of total infiltrated cells and (C) number of CD68+ infiltrated cells in each experimental group was quantitated, with higher numbers of infiltrated cells present in the control group compared to the peptide treated group.
On day 0, sutures where placed into the cornea of rats to induce corneal neovascularisation and inflammation. The eyes were treated for 3 days or 6 days with 16 μl of ALM201 (100 nM and 100 μM) or PBS (vehicle control).
Eyes were enucleated on the 3rd or 6th day one hour after treatment and frozen in gelatine.
Cross sections (10 μm) were taken at the centre of the eye for MSI, adjacent sections were stained with haematoxylin and eosin (H&E).

[5] = tested on: neovascularisation and inflammation in the injured cornea; assay: ALM201 concentration titration in rat corneal suture model, clinical scoring, Example 4; format: in vivo; details: for Vessel density, clinical score compared to PBS control group / Inflammation scoring in comparison to PBS treated group: scored day 7
Description: Each rat was anesthetised and two 10-0 sutures were placed intrastromally into the temporal cornea of the left eye, 1.5 mm from the limbus. The sutures were left in place for the entirety of the experiment. The right eye was kept as a no suture control but given the same treatment as the left eye. Treatment began approx. 24 hours after suture placement and continued once a day for 6 days.
(§1) Approximately 24 hours after the last treatment the eyes were imaged and clinically scored. The sutured eyes were scored based on vessel density, vessels distance to suture and inflammation. Vessel density was scored out of three, 0=no density, 1=mild, 2=moderate, 3=high. Vessels distance to suture was scored out of four, 0=no reach, 1=small distance, 2=moderate distance, 3=¾ of the way, 4=reached sutures and inflammation was scored out of three, 0=none, 1=minimal, 2=moderate, 3=severe. After clinical scoring the eyes were enucleated, tissue processed, wax embedded and cut into 5 μm sections while taking care to find the sutured area. Sections were stained with haematoxylin and eosin (H&E) to confirm suture location in each eye and adjacent slides were then used for immunohistochemistry to identify CD44+ cells and FKBPL expression as well NFκB and p-IκBα.

CD44 = assay: Immunohistochemistry staining for CD44 in rat cornea; format: in vivo; details: sutured corneas, 1 μM ALM201
Description: as §1
(§2) Sections (5 μm) were stained with haematoxylin and eosin (H&E) to confirm suture location in each eye. Adjacent slides were then used for immunohistochemistry to identify, CD44+ cells and FKBPL expression.

FKBPL = assay: Immunohistochemistry of FKBPL in rat cornea; format: in vivo; details: 1 μM ALM201
Description: as §1, §2

retinal inflammation [6] = assay: Mouse EAU model, histopathology (H&E) and histological score; format: in vivo, C57BL/6J mice
Excerpt: On day 24 p.i., fundus images were taken from all experimental mice using the TEFI system. Mice were then sacrificed by CO2 inhalation and eyes were carefully removed. All eyes were fixed in 2.5% (w/v) glutaraldehyde (Agar Scientific Ltd, Cambridge, UK) for 2 days at room temperature. Eyes were embedded in paraffin for standard H&E staining. Histological scores of retinal inflammation were graded using a standard scoring system described previously (Dick A. D., Cheng Y. F., Liversidge J., Forrester J. V., 1994. Immunomodulation of experimental autoimmune uveoretinitis: a model of tolerance induction with retinal antigens. Eye 8 (Pt 1), 52-59, incorporated herein by reference). Retinal sections from at least three different layers from each eye were used for histopathological analysis. The average score from three layers was used as the final pathological score of the eye.

NFκB = assay: Immunohistochemical analysis of free NFκB expression in rat cornea; format: in vivo; details: 1 μM ALM201
Description: as §1
(§3) NFκB and phosphorylated-IκBα antibodies were also used in this experiment to see if ALM201 affected the NFκB pathway. Nuclear factor kappa-light-chain-enhancer of B cells or NFκB is a transcription factor which is involved in several processes including inflammation, B cell development, apoptosis, immune regulation and cell proliferation. There are 5 different NFκB heterodimers in the NFκB family, depending on which heterodimer is activated they can activate or repress the transcription of the above process. […]

p-IκBα = assay: Immunohistochemistry of p-IκBα expression in rat cornea; format: in vivo; details: 1 μM ALM201
Description: as §1, §3

[7] = mouse, in vivo, ip, 0.3 mg/kg
Description: as §4

[8] = tested on: cell infiltrate, corneal swelling and blood vessels; assay: H&E staining of sutured rat corneas, Example 4; format: in vivo
Description: as §1, §2

[9] = subconjunctival injection, 100 nM ALM201, Triamcinolone positive control
[10] = Dexamethasone 0.5 mg/kg p.o. once daily day 14-24 p.i., 10 mice
[11] = once a day for 6 days, ALM201 100 μM
[12] = ALM201 0.3 mg/kg, after 10 days therapy
[13] = ALM201 0.3 mg/kg i.p. once daily day 14-24 p.i., 10 mice
[14] = ALM201 3 mg/kg i.p. once daily day 14-24 p.i., 10 mice

With `C[C@]12C=CC(=O)C=C1CC[C@H]1[C@@H]3C[C@@H](O)[C@](O)(C(=O)CO)[C@@]3(C)C[C@H](O)[C@@]12F` [Triamcinolone, reference compound] the “Vasculature in images (neovascularisation induced by sutures)” value (from here on “Vasculature in images”) [1, 9] was “normal vasculature”.
With `C[C@@H]1C[C@H]2[C@@H]3CCC4=CC(=O)C=C[C@]4(C)[C@@]3(F)[C@@H](O)C[C@]2(C)[C@@]1(O)C(=O)CO` [Dexamethasone, reference compound] the “Bodyweight during the 10-day treatment period” value [2] was “stable BW”, the “No. of mice with decreased score” value (retinal inflammation [3]; [10]) was 3 and the “No. of mice with increased score” value (retinal inflammation [3]; [10]) was 3. The “No. of mice with increased score (%)” value (retinal inflammation [3]; [10]) was “(30%)”, the “No. of mice with no change” value (retinal inflammation [3]; [10]) was 4 and the “Average increment in EAU score” value (retinal inflammation [3]; Dexamethasone 0.5 mg/kg, the 3 mice with increased score) was 0.80. The “Average reduction in EAU score” value (retinal inflammation [3]; Dexamethasone 0.5 mg/kg, the 3 mice with reduced score) was 0.69.
With “IRQQPRDPPTETLELEVSPDPAS (listed as Homo Sapiens) [ALM201]” the “CD68+ cell infiltrates compared to PBS-treated and dexamethasone-treated animals” value [4] was “reduced”, the “Neovascularisation in histological analysis compared to controls” value [4] was “decreased neovascularisation” and the “Total cell infiltrates compared to PBS-treated and dexamethasone-treated animals” value [4] was “reduced total cell infiltrates”. For the same compound, the “Inflammation and vessel density scores compared with dexamethasone” value ([5]; ALM201 100 μM) was “significant difference in scores”, the “Vessel density, clinical score compared to PBS control group” value ([5]; once a day for 6 days, ALM201 1 μM, dexamethasone positive control) was “significant decrease” and the “Vessel density, clinical score compared to PBS control group” value ([5]; once a day for 6 days, ALM201 10 μM) was “significant decrease”. The “Inflammation scoring in comparison to PBS treated group” value ([5]; once a day for 6 days, ALM201 10 μM, dexamethasone positive control) was “significant difference”, the “Inflammation scoring in comparison to PBS treated group” value [5, 11] was “significant difference” and the “Vessel density, clinical score compared to PBS control group” value [5, 11] was “significant decrease”. The “Vessel distance to sutures, clinical score compared to PBS vehicle control” value ([5]; once a day for 6 days, scored day 7 after suture, ALM201 1 μM, dexamethasone positive control) was “significantly different”, the “Most effective concentrations in preventing angiogenesis and inflammation” value ([5]; titration 0.01 μM to 100 μM) was 1 µM and 10 µM and the “Suture-induced neovascularisation in images” value ([1]; Hooded Lister Rats, 100 nM ALM201, dexamethasone, vs PBS control) was “absence of neovascularisation”. The “Growth of new blood vessels after corneal damage” value ([1]; after subconjunctival injection or topical application) was “prevented growth of new blood vessels”, the “Vessel distance from suture compared to PBS control” value ([1]; subconjunctival injection day 0, 3, 6, 100 nM ALM201, graded day 6) was “significant difference of p<0.01” and the “Vasculature in images” value [1, 9] was “normal vasculature”. For the same compound, the “Vasculature in images” value ([1]; topical treatment, daily) was “normal vasculature”, the “Vessel density compared to PBS control” value ([1]; topical treatment, daily) was “significantly different” and the Anti-inflammatory activity ([1]; when injected) was “had anti-inflammatory activity when injected”. For the same compound, the “CD44 expression compared to sutured PBS control” value (CD44) was “decrease in CD44 expression”, the “FKBPL expression in the corneal epithelium and stroma in comparison with PBS treated sutured corneas and normal corneas” value (FKBPL) was “increased” and the “Infiltrating cells in retinal histology” value (retinal inflammation [6]; [12]) was “Fewer infiltrating cells”. For the same compound, the “Retinal structure compared to PBS treated mice” value (retinal inflammation [6]; [12]) was “retinal structure was better preserved”, the “Retinal inflammation graded by standard histological scoring system (FIG. 8H)” value (retinal inflammation [6]; ALM201 0.3 and 3 mg/kg) was “dose-dependently suppressed retinal inflammation” and the “NFκB expression compared to PBS control sutured corneas” value (NFκB; sutured corneas) was “reduction in NFκB expression in the stroma”. For the same compound, the “Pattern of NFκB expression” value (NFκB; unsutured corneas) was “no effect”, the “p-IκBα expression compared to PBS treated sutured corneas” value (p-IκBα; sutured corneas) was “reduced” and the p-IκBα expression (p-IκBα; unsutured corneas) was “no expression of p-IκBα”. For the same compound, the “Bodyweight during the 10-day treatment period” value [7] was “stable BW”, the “Mice in which progression was prevented or inflammation reduced” value (retinal inflammation [3]; ALM201 0.3 mg/kg) was 20% and the “Mice with decreased level of EAU progression” value (retinal inflammation [3]; ALM201 0.3 mg/kg) was 80%. For the same compound, the “No. of mice with decreased score (%)” value (retinal inflammation [3]; [13]) was “(10%)”, the “No. of mice with increased score” value (retinal inflammation [3]; [13]) was 8 and the “No. of mice with increased score (%)” value (retinal inflammation [3]; [13]) was “(80%)”. The “No. of mice with no change (%)” value (retinal inflammation [3]; [13]) was “(10%)”, the “Difference between day 14 p.i. and day 24 p.i. (clinical score)” value (retinal inflammation [3]; ALM201 0.3 mg/kg i.p., 0.3 mg/kg) was “did not significant change and No” and the “Retinal infiltrates in fundus images compared to PBS treated EAU mice” value (retinal inflammation [3]; ALM201 0.3 mg/kg, day 24 p.i.) was “the number of infiltrates was fewer”. The “Average increment in clinical score, day 14 to day 24 p.i.” value (retinal inflammation [3]; ALM201 0.3 mg/kg, the 8 mice with increased score) was 0.68, the “No. of mice with decreased score” value (retinal inflammation [3]; [14]) was 3 and the “No. of mice with increased score (%)” value (retinal inflammation [3]; [14]) was “(40%)”. For the same compound, the “No. of mice with no change” value (retinal inflammation [3]; [14]) was 3, the “Difference between day 14 p.i. and day 24 p.i. (clinical score)” value (retinal inflammation [3]; ALM201 3 mg/kg i.p.) was “No” and the “Average decrement in clinical score, day 14 to day 24 p.i.” value (retinal inflammation [3]; ALM201 3 mg/kg, the 3 mice with decreased score) was 0.33. For the same compound, the “Average increment in clinical score, day 14 to day 24 p.i.” value (retinal inflammation [3]; ALM201 3 mg/kg, the four mice with increased score) was 0.82 point, the “Cell infiltrate, corneal swelling and blood vessels (H&E)” value ([8]; ALM201 0.01 μM to 10 μM) was “decreased as the ALM201 concentration was increased” and the “Corneal swelling (H&E)” value ([8]; ALM201 100 μM) was “more corneal swelling was observed”.
